US20120141432A1, “USE OF CATALYTIC ANTIOXIDANT TO PRESERVE STEM CELL PHENOTYPE AND CONTROL CELL DIFFERENTIATION” (University of Pittsburgh- Of the Commonwealth System of …, priority 2010, published 2012)
“Also recorded” adds a separate entry of the source.

Key:
Type in all cases: cell-based
muscle stem cells [1] = assay: Growth rate of muscle cells after CFSE labeling; details: 0 μM, 1 μM or 5 μM CFSE, FIG. 7B
Procedure: Cells were stained at 1.0 μM, and then analyzed at 0, 2, and 5 days. Note that the low fluorescence intensity approaches that of unstained cells by day 5. FIG. 7D is a plot of sample lineage trees showing the presence of dividing and non-dividing cells. FIG. 7E is a set of plots showing that 24 hours after injection into mdx mice, CFSE-labeled cells are detectable.
Both time-lapsed imaging and FACS sorting were applied to the quiescent population using used cytoplasmic tracking dyes, used 5-6-carboxyfluorescein diacetate, succinimdyl ester, CFSE, and a similar molecule, CMFDA. Once cell permeable CFDA-SE is taken up by cells, intracellular esterases in the cytoplasm cleave acetate groups and convert CFDA to fluorescent CFSE. It was first confirmed that CFSE is impermeable; it was not taken in by unlabeled neighboring cells when CFSE-positive cells die (FIG. 7A). An approach was developed to use CFSE as an effective method for labeling of muscle cells.

human skMSC [2] = assay: Growth factor dose response of human skMSC by time-lapsed imaging; details: for number of muscle stem cells: after 3 days in 100 ng/mL, vs lower doses and unstimulated controls; for response of human skMSC to growth factor: time-lapsed imaging
human skMSC [3] = assay: BrdU pulse detection of nondividing cells; details: 3 days exposure, BrdU pulse 36 hours, P=0.01
Procedure: Nondividing cells were also detected within the human muscle cell population in the context of GF-dose-dependent studies. […] The cells were pulsed with BrdU for 36 hours (division time=19±4 hrs) immunostaining was performed to detect labeled and unlabeled cells.

muscle stem cells [4] = assay: Myogenic differentiation of muscle stem cells (% of nuclei within myosin positive myotubes)
Procedure: (§1) FIGS. 2A and 2B are a set of bar graphs showing the effect of the catalytic antioxidant FBC-007 on the differentiation of muscle stem cells. The effect of FBC-007 at a concentration of 34 μM was measured on the myogenic differentiation of muscle stem cells. Differentiation was determined as the % of nuclei located within myosin positive myotubes and multinucleated myotubes.
In vitro Myogenic Differentiation: Cell populations from 3 different time points (<5 PDs, midpoint PDs, and maximal expansion) are evaluated. Briefly cells are plated at high density of 2000 cells/cm^2 in a low serum medium. After 3-4 days in culture, the media is changed to low serum or 2% serum medium. After day 7, immunocytochemical staining is performed to reveal fast myosin heavy chain (MyHC) expression. Methanol-fixed cultures are blocked with 5% HS and incubated with monoclonal mouse anti-MyHC (Sigma, 1:250, Sigma), biotinylated IgG (1:250, Vector), and streptavidin-Cy3 (1:500). […] In vitro differentiation efficiency is calculated as the ratio of myogenic nuclei to total nuclei.

muscle stem cells [5] = assay: Division time, cell growth and proliferation of muscle stem cells
Procedure: as §1
In Vitro Live Cell Imaging (LCI) to study Quiescent Nondividing cells. In vitro LCI is used to measure the fraction or proportion which is quiescent and nondividing after cytokine stimulation. The LCI system is unique in providing time-lapse images to characterize the cell populations. Using CytoTracker, DataCollector, and informatics tools, the growth rates of the populations are determined as described previously (Deasy et al., Stem Cells 20, 50-60 (2002)). In this way subpopulations or individual cells can be quantified. The combined the cell growth counts and the data of cell division time is used to calculate the size of the non-dividing fraction via a non-exponential Sherley equation (Sherley et al., Cell Prolif. 28, 137-44 (1995)).

[6] = test system: human umbilical cord mesenchymal stem cells; assay: Osteogenic differentiation of umbilical cord mesenchymal stem cells (ALP staining); details: 34 μM, BMP4 0, 0.1 or 10 ng/mL, vs control with no antioxidant, FIG. 3
Procedure: The cells were contacted with the catalytic antioxidant at a concentration of 34 μM and bone morphogenic protein (BMP4) at concentrations of 0, 0.1, or 10 ng/mL.
Umbilical cord mesenchymal stem cells (UC-MSCs) were isolated and cultured. Cells were plated in the presence and absence of catalytic antioxidant. Live cell time-lapsed imaging was used to examine proliferation and apoptosis; images were analyzed using custom software obtained from Kairos Instruments. Osteogenic differentiation was stimulated using previously described methods; Alkaline Phosphatase (ALP) staining was used to determine stem cell differentiation (see Schugar et al., J Biomed Biotechnol 2009, 789526 (2009)). Cell phenotype was examined by flow cytometry (Schugar et al., J Biomed Biotechnol 2009, 789526 (2009)). Levels of intracellular reactive oxygen species were examined using dihydroxyrhodamine 123.

stem cells = assay: Rescue from hydrogen peroxide-induced cell death
From the text: In other words, contacting stem cells with catalytic antioxidants allows the stem cells to proliferate (e.g. increase their numbers) without differentiating and losing the characteristics of stem cells, such as the phenotypic characteristics that distinguish stem cells from other cells. […] Thus, as disclosed herein contacting stem cells with catalytic antioxidants permits in vitro expansion of stem cells while delaying or inhibiting the differentiation of the stem cells, as well as protecting the stem cells from oxidative stress induced cell death.

muscle stem cells [7] = assay: ROS in muscle stem cells grown with FGF-2; details: cells grown with FGF-2 vs absence of FGF-2, FIG. 5C
From the text: FIGS. 5A-5D are bar graphs, a plot and an electronic image showing that oxidative stress decreases cell viability (FIG. 5A) and myogenic differentiation capacity (FIG. 5B). […] FIG. 5D is an electronic image of muscle cells showing that myosin (staining) declines as ROS increases.

[8] = stem cell cultures, muscle stem cell and mesenchymal stem cells

Molecule: carboxyfluorescein diacetate succinimidyl ester [CFSE]
- growth rates after CFSE treatment (muscle stem cells [1]): does not affect growth rates

Molecule: IGF-1: Insulin-like growth factor 1
- number of muscle stem cells (human skMSC [2]): significantly more muscle stem cells
- response of human skMSC to growth factor (human skMSC [2]): dose-dependent response
- nondividing cells (BrdU [−]) (human skMSC [3]): significantly fewer nondividing cells

Molecule: CC[n+]1ccccc1-c1c2nc(c(-c3cccc[n+]3CC)c3ccc([n-]3)c(-c3cccc[n+]3CC)c3nc(c(-c4cccc[n+]4CC)c4ccc1[n-]4)C=C3)C=C2.[Mn+3] [FBC-007, Mn(III)tetrakis(N-ethylpyridinium-2-yl)porphyrin]
- myogenic differentiation (% of nuclei located within myosin positive myotubes and multinucleated myotubes) (muscle stem cells [4]; FBC-007 34 μM vs controls without antioxidant, FIG. 2A): reduced levels of differentiation relative to controls
- uninduced myogenic differentiation (muscle stem cells [4]; absence of growth factor (GF) stimulation, FIG. 6C): prevents uninduced myogenic differentiation
- myogenic differentiation in stem cell cultures (muscle stem cells [4]; [8]): inhibits the myogenic differentiation
- division time of the muscle stem cells (muscle stem cells [5]; FBC-007 34 μM, FIG. 2B): does not show a statistically significant change
- cell growth (muscle stem cells [5]; FIGS. 6A and 6B): did not affect cell growth; also recorded: does not affect cell growth
- proliferation of the stem cells (muscle stem cells [5]; [8]): without affecting the proliferation
- osteogenic differentiation [6]: reduced osteogenic differentiation
- hydrogen peroxide-induced cell death (stem cells): can rescue the stem cells

Molecule: FGF-2: FGF-2 (basic fibroblast growth factor, bFGF)
- number of muscle stem cells (human skMSC [2]): significantly more muscle stem cells
- response of human skMSC to growth factor (human skMSC [2]): dose-dependent response
- reactive oxygen species (ROS) (muscle stem cells [7]): increase in some muscle stem cells
